Test results: PubChem BioAssay (NCI)
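All cell lines were grown in 96-well plates and treated with compound for 48 hours. TGI denotes the concentration required for complete inhibition of growth.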

Columns and labels:
Assay in all cases: inhibition of tumour cell growth, NCI panel, 48 h
RXF 393 renal = system: RXF 393 renal
SN12C renal = system: SN12C renal
UACC-257 melanoma = system: UACC-257 melanoma
SF-268 CNS = system: SF-268 CNS
DU-145 prostate = system: DU-145 prostate
OVCAR-3 ovarian = system: OVCAR-3 ovarian
NCI-H226 lung = system: NCI-H226 lung
T-47D breast = system: T-47D breast
COLO 205 colon = system: COLO 205 colon
SF-295 CNS = system: SF-295 CNS
MDA-N = system: MDA-N
HOP-62 NSCLC = system: HOP-62 NSCLC
HS 578T breast = system: HS 578T breast
SW-620 colon = system: SW-620 colon
U251 CNS = system: U251 CNS
OVCAR-5 ovarian = system: OVCAR-5 ovarian
HCT-116 colon = system: HCT-116 colon
HT29 colon = system: HT29 colon
BT-549 breast = system: BT-549 breast

| SMILES | TGI (RXF 393 renal) [µM] | TGI (SN12C renal) [µM] | TGI (UACC-257 melanoma) [µM] | TGI (SF-268 CNS) [µM] | TGI (DU-145 prostate) [µM] | TGI (OVCAR-3 ovarian) [µM] | TGI (NCI-H226 lung) [µM] | TGI (T-47D breast) [µM] | TGI (COLO 205 colon) [µM] | TGI (SF-295 CNS) [µM] | TGI (MDA-N) [µM] | TGI (HOP-62 NSCLC) [µM] | TGI (HS 578T breast) [µM] | TGI (SW-620 colon) [µM] | TGI (U251 CNS) [µM] | TGI (OVCAR-5 ovarian) [µM] | TGI (HCT-116 colon) [µM] | TGI (HT29 colon) [µM] | TGI (BT-549 breast) [µM] |
| --- | --- | --- | --- | --- | --- | --- | --- | --- | --- | --- | --- | --- | --- | --- | --- | --- | --- | --- | --- |
| COC(=O)[C@H](Cc1c[nH]c2ccccc12)NP(=O)(O)OC[C@H]1O[C@@H](n2cc(C)c(=O)[nH]c2=O)C[C@@H]1N=[N+]=[N-] | > 100 | > 100 | > 100 | > 100 | > 100 | > 100 | > 100 | > 100 | > 100 | > 100 | > 100 | > 100 | > 100 | > 100 | > 100 | > 100 | > 100 | > 100 | > 100 |
| CCOC(=O)c1cc2c3c(c(C(C)=O)c(O)c2[nH]1)N(C(C)=O)CC3 | > 100 | > 100 | > 100 | > 100 | > 100 | > 100 | > 100 | > 100 | > 100 | > 100 | > 100 | > 100 | > 100 | > 100 | > 100 | > 100 | > 100 | > 100 | > 100 |
| CC1=NNC(=O)C1C1CC(c2c[nH]c3ccccc23)=NN(C(N)=O)C1=O (stereo unspecified) | > 100 | > 100 | > 100 | > 100 | > 100 | > 100 | > 100 | > 100 | > 100 | > 100 | > 100 | > 100 | > 100 | > 100 | > 100 | > 100 | > 100 | > 100 | > 100 |
| CCN(CC)C1CCC(C2c3cc4c(cc3OC(N3CCOCC3)C2C)OCO4)CC1 (stereo unspecified) | 52.7 | > 100 | > 100 | > 100 | > 100 | 99.1 | – | > 96.7 | > 100 | > 100 | 38 | > 70.3 | > 72.1 | > 100 | > 100 | 96.9 | > 100 | 25.7 | 84.1 |
| C#C/C=C\CCCCCCCCCCCCCC/C=C\CCCCC#CC(O)C#CCCCC/C=C\CCCCCC/C=C/C(O)C#C (stereo unspecified) | 41.4 | > 75 | > 63.4 | 44.4 | > 75 | > 55.1 | > 59.4 | 26 | 35.6 | > 55.6 | 24.2 | > 75 | > 75 | > 52.9 | > 75 | > 75 | > 32.8 | > 48.8 | > 75 |
| COc1ccc2[nH]cc(C(=O)C(=O)NC34CC5CC(CC(C5)C3)C4)c2c1 | 16.8 | 51.9 | > 100 | > 100 | > 100 | > 49.5 | > 71.1 | > 100 | > 100 | > 54.6 | > 100 | 74.7 | > 91.1 | > 100 | > 85.3 | > 100 | > 100 | 5.32 | > 100 |
| CN(C)CCCSc1nc2c(c(=N)n1-c1ccccc1)c(=S)n(-c1ccccc1)c(=S)n2-c1ccccc1 | 3.06 | 3.18 | 3.32 | 3.33 | 3.04 | 3.12 | 28.4 | 4.62 | 3.94 | 10.6 | 3.18 | 3.4 | > 100 | 3.65 | 3.19 | 24.5 | 3.46 | – | 3.38 |
| O=[N+]([O-])c1ccc(Oc2c(Cl)cc(S(=O)(=O)/N=C(\NO)Nc3ccc(Cl)cc3)cc2Cl)c(Cl)c1 | 26.5 | 27.4 | 30.8 | 29.6 | 26.8 | 24.7 | 48.3 | 67.7 | 35.5 | 31.1 | 28.9 | 30.3 | 36 | 80.3 | 30.8 | 35.5 | 26.2 | 30.5 | 29 |
| O=C(O)c1cc2c(cc1CC(Cc1ccc3c(c1)CCCC3)C(=O)O)CCCC2 (stereo unspecified) | > 100 | > 100 | > 100 | > 100 | > 100 | > 100 | > 100 | > 100 | > 100 | > 100 | > 100 | > 100 | > 100 | > 100 | > 100 | > 100 | > 100 | > 100 | > 100 |
| COC(=O)C1=C(OC(=O)c2ccccc2)C(C(=O)OC)[C@@]2(O)[C@@H](C(=O)OC)[C@H](C)C[C@@H]1[C@@H]2C(=O)OC (stereo partly specified) | 42.9 | > 100 | > 100 | > 100 | > 100 | > 100 | > 100 | > 100 | 41.1 | > 100 | 63.5 | > 100 | > 100 | > 100 | > 100 | > 100 | > 100 | > 100 | 78.1 |
| C=C1CCCC(C)(C)C1CCC1(C)CCC(C(C)C(=O)OC)OO1 (stereo unspecified) | 11.7 | 8.4 | > 25 | 7.77 | 8.63 | > 25 | > 25 | 11.7 | 13.3 | 10.2 | 7.39 | 4.7 | 13.8 | 24.2 | 7.21 | > 23.1 | > 25 | > 25 | 9.97 |
| O=C(/C=C/c1ccc(C(F)(F)F)cc1)c1c([O-])on[n+]1-c1ccccc1 | 2.68 | 7.71 | 6.93 | > 26.2 | 7.17 | 3.37 | > 29.9 | 3.82 | 4.91 | 20.2 | 8.69 | 13 | > 32.3 | – | – | 8.06 | 3.85 | 2.25 | 3.04 |
| COc1cc2oc(-c3ccc4c(c3)OCO4)c(OC)c(=O)c2c(OC)c1O | > 100 | > 100 | > 100 | > 100 | > 100 | > 100 | > 100 | > 100 | > 100 | > 100 | > 100 | > 100 | > 100 | > 100 | > 100 | > 100 | > 100 | > 100 | > 100 |
| CCC1CCN=C(NS(=O)(=O)c2cc(C)c(Cl)cc2S)N1 (stereo unspecified) | > 100 | > 100 | > 100 | > 100 | > 100 | – | 73.6 | 98.5 | > 100 | – | > 100 | > 100 | 92 | 90.3 | 93 | 49.9 | 94.6 | 88.9 | 57.2 |
| Cc1cc(C)c(O)c(CN2CCN(C(C)C)CCN(C(C)C)CC2)c1 | 45 | 83.9 | 35.5 | > 100 | > 100 | > 100 | > 100 | 61 | 60.8 | 85.3 | 68.3 | – | > 100 | > 100 | > 100 | > 100 | 85.2 | – | 54 |
| CC(=O)Oc1ccc2cc(Oc3ccc(Cl)c(Cl)c3)c(=O)oc2c1 | 65.9 | 54.1 | 85.1 | > 100 | > 100 | 50 | 82.9 | 99.3 | – | > 100 | 56.6 | 50.6 | > 100 | > 100 | 41.5 | > 100 | 39.9 | > 100 | 34.4 |
| CCN(CC)CCN(C(=Nc1ccccc1)N1CCCCC1)c1ccccc1 | 41.1 | 29 | 34.7 | > 100 | > 100 | 28.3 | 29.3 | 9.92 | 13.1 | 17.9 | 11.2 | 22.2 | 27 | > 100 | 43.3 | – | 3.35 | 30.9 | 47 |
| Cc1ccc(-c2n[nH]c(=O)n2NC(=O)c2ccccc2C(=O)O)cc1 | > 100 | > 100 | > 100 | > 100 | > 100 | > 100 | > 100 | > 100 | – | > 100 | > 100 | > 100 | > 100 | > 100 | > 100 | – | > 100 | > 100 | > 100 |
| C=CCN1C[C@H](C)N([C@@H](c2ccc(C(=O)N3CCCCC3)cc2)c2cccc(OC)c2)C[C@H]1C | > 100 | > 100 | 50 | > 100 | > 100 | > 100 | > 100 | 76 | 30.6 | > 100 | > 100 | > 100 | > 100 | – | > 100 | > 100 | > 100 | > 100 | > 100 |
| CC1(C)C2CC(O)C1CCC2=O (stereo unspecified) | > 100 | > 100 | > 100 | > 100 | > 100 | > 100 | > 100 | > 100 | > 100 | > 100 | > 100 | > 100 | > 100 | – | > 100 | > 100 | > 100 | > 100 | > 100 |
| CC(=O)OCC1OC(n2c3c(cc(C#N)c2=S)CCC3)C(OC(C)=O)C(OC(C)=O)C1OC(C)=O (stereo unspecified) | > 100 | > 100 | > 100 | > 100 | > 100 | – | > 100 | > 100 | > 100 | > 100 | > 100 | > 100 | > 100 | > 100 | > 100 | > 100 | > 100 | > 100 | > 100 |
| O=c1[nH]nc(Cc2ccccc2)n1CCCl | > 100 | > 100 | – | > 100 | > 100 | > 100 | > 100 | > 100 | > 100 | > 100 | > 100 | > 100 | > 100 | > 100 | > 100 | > 100 | > 100 | > 100 | > 100 |
| C[C@]12CC[C@H]3[C@@H](CC=C4C[C@@H](O)CC[C@@]43C)[C@@H]1C/C(=C/c1ccccc1)[C@@H]2O | > 57 | – | 45.4 | 89.2 | > 64.2 | 43.3 | 66.1 | > 59.1 | 98.9 | > 65.9 | 65.5 | 54.8 | 98 | > 100 | > 50.5 | > 76.5 | > 45.3 | > 79.3 | 72.4 |
| N#Cc1ccc(N2CCOCC2)cc1 | > 100 | > 100 | > 100 | > 100 | > 100 | > 100 | – | > 100 | > 100 | > 100 | > 100 | > 100 | > 100 | > 100 | > 100 | > 100 | > 100 | > 100 | > 100 |
| O=C(OCc1ccc([N+](=O)[O-])cc1)N1c2ccccc2[C@@]23O[C@]24CCC[C@H]3C#C/C=C\C#C[C@H]14 | > 100 | > 100 | > 100 | > 100 | > 100 | > 100 | > 100 | > 100 | > 100 | > 100 | > 100 | – | > 100 | > 100 | > 100 | > 100 | > 100 | > 100 | > 100 |
